As usually defined, the GI50 is the concentration at which growth is held to half of that of the control. A high value points to lower sensitivity of the cells. As usually defined, the IC50 is the point on the concentration scale where inhibition reaches its midpoint. What is called inhibition is how much of the control response was suppressed. A low value points to a response near the control.

Assay [1] has as its system HT-29. Kind of assay: Cytotoxicity against human HT-29 cells after 4 hrs by MTT assay. Format: functional. The following applies: HT-29, 4 h. (Tetrazolium assays rely on reduction of a dye to a coloured formazan, in cell work by metabolically active cells.)
Assay [2] deals with T1, Aurora kinase A (Homo sapiens, UniProt O14965).
T1 sequence (O14965 whole entry): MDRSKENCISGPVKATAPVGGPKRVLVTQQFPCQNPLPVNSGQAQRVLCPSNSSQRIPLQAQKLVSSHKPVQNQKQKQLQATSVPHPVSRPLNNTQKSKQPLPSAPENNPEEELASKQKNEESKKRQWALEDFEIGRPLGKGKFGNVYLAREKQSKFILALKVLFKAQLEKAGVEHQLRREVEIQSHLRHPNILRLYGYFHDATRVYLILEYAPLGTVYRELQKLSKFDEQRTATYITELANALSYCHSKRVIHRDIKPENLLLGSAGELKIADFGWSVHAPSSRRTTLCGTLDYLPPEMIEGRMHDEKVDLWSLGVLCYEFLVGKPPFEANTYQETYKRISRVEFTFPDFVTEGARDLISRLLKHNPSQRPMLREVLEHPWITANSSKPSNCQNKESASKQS
Kind of assay: Inhibition of human recombinant His-tagged Aurora A kinase expressed in insect cells.

In assay [3] the test system is DU-145. Kind of assay: Cytotoxicity against human DU145 cells at 10 uM after 4 hrs by MTT assay. Format: functional. The note with it: DU-145, 4 h.
Assay [4] relates to HT-29. Kind of assay: Cytotoxicity against human HT-29 cells at 10 uM after 4 hrs by MTT assay. The assay is classed as functional. The following applies: HT-29, 4 h.
Assay [5] concerns DU-145. Briefly: Cytotoxicity against human DU145 cells after 4 hrs by MTT assay. The assay is classed as functional. The note with it: DU-145, 4 h.

Regarding `COc1ccc2cc(C(=O)C3CCC(C(C)C(=O)NCCC4=CCCCC4)CC3)[nH]c2c1` (stereo unspecified), the 50% growth inhibitory concentration (GI50) is 9.36 µM in assay [1] and 15.9 µM in assay [5]. Further, the IC50 in assay [2] (read-out: IC50) worked out at 86.2 µM. The inhibition at 10 µM in assay [3] worked out at 49%; in assay [4] it was 68%.
On to `CCOc1ccc(NC(=S)N(CCN(CC)CC)Cc2cc3cc4c(cc3[nH]c2=O)OCCO4)cc1` [ASN03776845], for which the GI50 in assay [1] was 6.33 µM; in assay [5], 14.1 µM. Further, the concentration for half-maximal inhibition (IC50) entry in assay [2] is recorded as “Not Active”. Besides, the inhibition at 10 µM worked out at 49% in assay [3] and 78% in assay [4].
For `CCOc1ccc2nc(NC3=NC(=O)CC(c4ccc(OC)cc4)N3)nc(C)c2c1` (stereo unspecified), in that order: 7.08 µM, 4.26 µM, “Not Active”, 84% and 85%.
For `CCCOc1ccc(CNC(=O)c2[nH]c3cc(C)ccc3c2Sc2ccccc2)cc1`, in that order: 5.36 µM, 26 µM, “Not Active”, 34% and 64%.
Take `COc1ccc2sc(SCC(=O)Nc3ncc(Br)s3)nc2c1`: the concentration for 50% growth inhibition (GI50) was determined as 2.04 µM in assay [1] and 17 µM in assay [5]. Besides, the concentration for half-maximal inhibition (IC50) in assay [2] (read-out: IC50) was more than 100 µM. Besides, the figures for the inhibition at 10 µM in assay [3] and in assay [4] were 49% and 89%, respectively.
As to `COc1ccc(C(=O)Nc2ccccc2C(=O)NC(Cc2ccc(O)cc2)C(=O)Nc2ccc(C)cc2C)cc1` (stereo unspecified), the 50% growth inhibitory concentration (GI50) in assay [1] was determined as 5.23 µM; in assay [5] it was 2.73 µM. Besides, the IC50 in assay [2] (read-out: IC50) came to 5.09 µM. In addition, the inhibition at 10 µM in assay [3] stood at 90%; in assay [4], 73%.
The like results for `COc1ccc(-c2cc(C(=O)Nc3ccc(C)cc3C)c3c(-c4ccccc4)[nH]nc3n2)cc1OC` were, in that order, 1.65 µM, 2.06 µM, more than 100 µM, 92% and 91%.
As to `Cc1ccc(-c2nnc(Nc3ccc(Oc4ncccc4-c4c[nH]nc4N)cc3)c3ccccc23)cc1`, the IC50 in assay [2] (read-out: IC50) was 0.06 µM.
For `COc1ccc(OCC(O)Cn2c(N/N=C/c3ccccc3O)nc3c2c(=O)[nH]c(=O)n3C)cc1` (stereo unspecified), the GI50 in assay [1] worked out at 7.94 µM; in assay [5], 27.7 µM. In addition, the half-inhibitory concentration (IC50) in assay [2] (read-out: IC50) came out at 18.4 µM. Moreover, the inhibition at 10 µM in assay [3] came to 23%; in assay [4], 58%.
Take `CCOc1ccc2cc(CNc3cc(OC)cc(OC)c3)c(=O)[nH]c2c1` [ASN07410292]: the GI50 was found to be 3.64 µM in assay [1] and 5.81 µM in assay [5]. Also, in assay [2], the concentration for half-maximal inhibition (IC50) result is reported as “Not Active”. In addition, the values for the inhibition at 10 µM in assay [3] and in assay [4] were 80% and 88%, respectively.
`CCOc1ccc2nc(Nc3nc(O)c4ccccc4n3)nc(C)c2c1`: the GI50 was 29.1 µM in assay [1] and 36.9 µM in assay [5]. In assay [2] (read-out: IC50), the IC50 is 16.7 µM. Besides, the inhibition at 10 µM in assay [3] worked out at 80%; in assay [4] it was 89%.
Turning to `Cc1ccc(NC(=O)C(Cc2ccc(O)cc2)NC(=O)c2ccccc2N)cc1` (stereo unspecified), the figures for the concentration for 50% growth inhibition (GI50) in assay [1] and in assay [5] were 9.48 µM and 3.93 µM, respectively. Also, in assay [2] (read-out: IC50), the IC50 was determined as 11.9 µM. Further, the inhibition at 10 µM in assay [3] amounted to 87%; in assay [4], 54%.
The like results for `CCOc1ccc(NC(=O)Cn2c(Nc3ccc(OCC)cc3)nc3c2c(=O)[nH]c(=O)n3C)cc1` were, in that order, 7.91 µM, more than 100 µM, 98.7 µM, 57% and 62%.
In the case of `COc1ccc(N(CC(=O)Nc2cc(Cl)ccc2C)S(=O)(=O)c2c(C)n[nH]c2C)cc1`, the 50% growth inhibitory concentration (GI50) in assay [1] amounted to 3.98 µM; in assay [5] it was 5.98 µM. For the same compound, in assay [2], the IC50 entry was “Not Active”. Also, the inhibition at 10 µM came to 74% in assay [3] and 87% in assay [4].
Consider `CC(=O)Nc1cccc(NC(=O)C(=O)NCCc2sc(-c3ccc(Cl)cc3)nc2C)c1`, for which the values for the GI50 in assay [1] and in assay [5] were 16.5 µM and more than 100 µM, respectively. In addition, the IC50 in assay [2] (read-out: IC50) was more than 100 µM. The inhibition at 10 µM in assay [3] came to 32%; in assay [4], 54%.
On to `Cc1ccc(Nc2cc(Nc3ccc(NS(=O)(=O)c4ccccc4F)cc3)nc(C)n2)cc1`, for which the GI50 in assay [1] came to 5.12 µM; in assay [5] it was 23.4 µM. Besides, in assay [2], the IC50 result is on record as “Not Active”. The results for the inhibition at 10 µM in assay [3] and in assay [4] were 38% and 83%, respectively.

Source of the values: ChEMBL document CHEMBL1641488, “Computational approach to the identification of novel Aurora-A inhibitors” (Bioorg Med Chem, 2011).
